Source: PubChem BioAssay AID256 (DTP/NCI, 2004)
“And” between values parts separate entries of the source, which are not always exact repeats. Identical values can stand only once. Inconclusive results and toxic doses are left out. How the source made its calls: active means survival T/C of 150% or more; inactive means T/C below 125% in these data.

System: CD2F1 mice, L1210 leukemia ip, survival T/C
Experiment: NCI In Vivo Anticancer Drug Screen. Data for tumor model L1210 Leukemia (intraperitoneal) in CD2F1 (CDF1) mice
Conditions: higher = longer survival
Method in brief: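 In this screen, transplantable tumors were grown in mice given either the compound or its vehicle. Results were expressed as the treated measurement relative to the control measurement.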

[1] = endpoint: mean survival time, dose: 50.0 mg/kg/injection, schedule: Q01DX009 (ip), vehicle: Klucel (hydroxypropylcellulose) (HPC)
[2] = endpoint: mean survival time, dose: 100.0 mg/kg/injection, schedule: Q01DX009 (ip), vehicle: Klucel (hydroxypropylcellulose) (HPC)
[3] = endpoint: mean survival time, dose: 200.0 mg/kg/injection, schedule: Q01DX009 (ip), vehicle: Klucel (hydroxypropylcellulose) (HPC)
[4] = endpoint: mean survival time, dose: 100.0 mg/kg/injection, schedule: Q04DX003 (ip), vehicle: saline with Tween-80
[5] = endpoint: mean survival time, dose: 100.0 mg/kg/injection, schedule: Q01DX001 (ip), vehicle: Klucel (hydroxypropylcellulose) (HPC)
[6] = endpoint: mean survival time, dose: 25.0 mg/kg/injection, schedule: Q01DX009 (ip), vehicle: saline with Tween-80
[7] = endpoint: mean survival time, dose: 25.0 mg/kg/injection, schedule: Q04DX002 (ip), vehicle: saline with Tween-80
[8] = endpoint: mean survival time, dose: 50.0 mg/kg/injection, schedule: Q01DX009 (ip), vehicle: saline with Tween-80
[9] = endpoint: mean survival time, dose: 50.0 mg/kg/injection, schedule: Q04DX002 (ip), vehicle: saline with Tween-80
[10] = endpoint: mean survival time, dose: 100.0 mg/kg/injection, schedule: Q01DX009 (ip), vehicle: saline with Tween-80
[11] = endpoint: mean survival time, dose: 100.0 mg/kg/injection, schedule: Q04DX002 (ip), vehicle: saline with Tween-80
[12] = endpoint: mean survival time, dose: 200.0 mg/kg/injection, schedule: Q01DX009 (ip), vehicle: saline with Tween-80
[13] = endpoint: mean survival time, dose: 400.0 mg/kg/injection, schedule: Q01DX009 (ip), vehicle: saline with Tween-80
[14] = endpoint: median survival time, dose: 25.0 mg/kg/injection, schedule: Q01DX009 (ip), vehicle: saline with Tween-80
[15] = endpoint: median survival time, dose: 50.0 mg/kg/injection, schedule: Q01DX009 (ip), vehicle: saline with Tween-80
[16] = endpoint: median survival time, dose: 100.0 mg/kg/injection, schedule: Q01DX009 (ip), vehicle: saline with Tween-80
[17] = endpoint: median survival time, dose: 200.0 mg/kg/injection, schedule: Q01DX009 (ip), vehicle: saline with Tween-80
[18] = endpoint: mean survival time, dose: 200.0 mg/kg/injection, schedule: Q04DX002 (ip), vehicle: saline with Tween-80

Measured: T/C

CC(=O)Nc1cc(NC(C)=O)cc(N(CCCl)CCCl)c1
inactive: endpoint: mean survival time, dose: 12.5 mg/kg/injection, schedule: Q01DX005 (ip), vehicle: water 100 % of control | endpoint: mean survival time, dose: 25.0 mg/kg/injection, schedule: Q01DX005 (ip), vehicle: water 106 % of control | endpoint: mean survival time, dose: 50.0 mg/kg/injection, schedule: Q01DX005 (ip), vehicle: water 101 % of control

Cc1ccc(S(=O)(=O)OCC2OCOC(C(O)CO)C2O)cc1 (configuration not stated)
inactive: [1] 101 % of control | [2] 97 % of control | [3] 97 % of control

COc1nc(NC2OC(CO)C(O)C(O)C2O)cc(=O)[nH]1 (configuration not stated)
inactive: endpoint: median survival time, dose: 12.5 mg/kg/injection, schedule: Q01DX005 (ip), vehicle: saline 105 % of control | endpoint: median survival time, dose: 25.0 mg/kg/injection, schedule: Q01DX005 (ip), vehicle: saline 97 % of control | endpoint: median survival time, dose: 50.0 mg/kg/injection, schedule: Q01DX005 (ip), vehicle: saline 100 % of control | endpoint: median survival time, dose: 100.0 mg/kg/injection, schedule: Q01DX005 (ip), vehicle: saline 100 % of control | endpoint: median survival time, dose: 200.0 mg/kg/injection, schedule: Q01DX005 (ip), vehicle: saline 102 % of control

COc1ccc(C(=Cc2cc(OC(C)=O)c3ccccc3c2OC(C)=O)c2ccc(OC)cc2)cc1
inactive: [4] 97 % of control | endpoint: mean survival time, dose: 200.0 mg/kg/injection, schedule: Q04DX003 (ip), vehicle: saline with Tween-80 89 % of control | endpoint: mean survival time, dose: 400.0 mg/kg/injection, schedule: Q04DX003 (ip), vehicle: saline with Tween-80 91 % of control

C=CS(=O)(=O)CCCC
inactive: [5] 96 % of control | endpoint: mean survival time, dose: 200.0 mg/kg/injection, schedule: Q01DX001 (ip), vehicle: Klucel (hydroxypropylcellulose) (HPC) 96 % of control | endpoint: mean survival time, dose: 400.0 mg/kg/injection, schedule: Q01DX001 (ip), vehicle: Klucel (hydroxypropylcellulose) (HPC) 101 % of control

COc1ccc(NC(=O)Oc2ccc(C(C)(C)C)cc2)cc1
inactive: [6] 93 % of control | [7] 104 % of control | [8] 97 % of control | [9] 117 % of control | [10] 97 % of control | [11] 87 % of control and 93 % of control

N=C(c1ccccc1)c1ccccc1
inactive: [10] 100 % of control | [12] 102 % of control | [13] 102 % of control

OCCC(c1ccccc1)C1CCCCN1 (configuration not stated)
inactive: endpoint: mean survival time, dose: 75.0 mg/kg/injection, schedule: Q01DX001 (ip), vehicle: saline 101 % of control | endpoint: mean survival time, dose: 150.0 mg/kg/injection, schedule: Q01DX001 (ip), vehicle: saline 100 % of control

O=C(NO)Nc1ccccc1
inactive: endpoint: mean survival time, dose: 8.0 mg/kg/injection, schedule: Q03HX024 (ip), vehicle: other 101 % of control | endpoint: mean survival time, dose: 16.0 mg/kg/injection, schedule: Q03HX024 (ip), vehicle: other 101 % of control | endpoint: mean survival time, dose: 32.0 mg/kg/injection, schedule: Q03HX024 (ip), vehicle: other 101 % of control | endpoint: mean survival time, dose: 62.0 mg/kg/injection, schedule: Q03HX024 (ip), vehicle: saline with Tween-80 89 % of control | endpoint: mean survival time, dose: 64.0 mg/kg/injection, schedule: Q03HX024 (ip), vehicle: other 95 % of control | endpoint: mean survival time, dose: 93.0 mg/kg/injection, schedule: Q03HX024 (ip), vehicle: saline with Tween-80 86 % of control | endpoint: mean survival time, dose: 128.0 mg/kg/injection, schedule: Q03HX024 (ip), vehicle: other 92 % of control

CCC(=O)Sc1ccccc1C(=O)Nc1ccc(Cl)cc1
inactive: [14] 112 % of control | [15] 111 % of control | [16] 107 % of control | [17] 112 % of control | endpoint: median survival time, dose: 400.0 mg/kg/injection, schedule: Q01DX009 (ip), vehicle: saline with Tween-80 86 % of control

O=C(/C=C/c1ccccc1)Nc1ccc(Cl)c(Cl)c1
inactive: [11] 100 % of control | [18] 91 % of control | endpoint: mean survival time, dose: 400.0 mg/kg/injection, schedule: Q04DX002 (ip), vehicle: saline with Tween-80 95 % of control

O=C(Nc1cccnc1)c1cccc([N+](=O)[O-])c1
inactive: endpoint: mean survival time, dose: 25.0 mg/kg/injection, schedule: Q01DX009 (ip), vehicle: Klucel (hydroxypropylcellulose) (HPC) 108 % of control | endpoint: mean survival time, dose: 25.0 mg/kg/injection, schedule: Q04DX002 (ip), vehicle: Klucel (hydroxypropylcellulose) (HPC) 97 % of control | [1] 110 % of control | endpoint: mean survival time, dose: 50.0 mg/kg/injection, schedule: Q04DX002 (ip), vehicle: Klucel (hydroxypropylcellulose) (HPC) 102 % of control | [2] 93 % of control | endpoint: mean survival time, dose: 100.0 mg/kg/injection, schedule: Q04DX002 (ip), vehicle: Klucel (hydroxypropylcellulose) (HPC) 97 % of control | [3] 92 % of control | endpoint: mean survival time, dose: 200.0 mg/kg/injection, schedule: Q04DX002 (ip), vehicle: Klucel (hydroxypropylcellulose) (HPC) 96 % of control

CSc1ccc(C(c2ccc(SC)cc2)C(Cl)(Cl)Cl)cc1
inactive: endpoint: mean survival time, dose: 50.0 mg/kg/injection, schedule: Q04DX003 (ip), vehicle: saline with Tween-80 91 % of control | [4] 89 % of control

O=C(O)CCCC1CCc2ccccc2C1 (configuration not stated)
inactive: [2] 96 % of control | [3] 102 % of control | endpoint: mean survival time, dose: 400.0 mg/kg/injection, schedule: Q01DX009 (ip), vehicle: Klucel (hydroxypropylcellulose) (HPC) 97 % of control

COc1ccc(Cc2nc(C)cc3cc(OC)c(OC)cc23)cc1OC
inactive: endpoint: mean survival time, dose: 25.0 mg/kg/injection, schedule: Q01DX009 (ip), vehicle: water 92 % of control

Nc1nc(=O)c2[nH]cnc2n1O
inactive: endpoint: mean survival time, dose: 12.5 mg/kg/injection, schedule: Q04DX003 (ip), vehicle: acetone 97 % of control | endpoint: mean survival time, dose: 16.5 mg/kg/injection, schedule: Q01DX009 (ip), vehicle: saline 102 % of control | endpoint: mean survival time, dose: 25.0 mg/kg/injection, schedule: Q01DX009 (ip), vehicle: saline 102 % of control | endpoint: mean survival time, dose: 25.0 mg/kg/injection, schedule: Q04DX003 (ip), vehicle: acetone 94 % of control | endpoint: mean survival time, dose: 50.0 mg/kg/injection, schedule: Q04DX003 (ip), vehicle: acetone 97 % of control | endpoint: mean survival time, dose: 55.0 mg/kg/injection, schedule: Q01DX009 (ip), vehicle: saline 118 % of control

O=c1cc[nH]c(=O)n1C1OC(CO)C(O)C1O (configuration not stated)
inactive: endpoint: mean survival time, dose: 100.0 mg/kg/injection, schedule: Q01DX005 (ip), vehicle: saline 104 % of control | endpoint: mean survival time, dose: 200.0 mg/kg/injection, schedule: Q01DX005 (ip), vehicle: saline 113 % of control

CCCCCCCCCCCCCCCCCCOCC(CO)OC (configuration not stated)
inactive: [14] 104 % of control | [15] 101 % of control | [16] 103 % of control | [17] 102 % of control

S=C1N(C2CCCCC2)CCN1C1CCCCC1
inactive: endpoint: mean survival time, dose: 25.0 mg/kg/injection, schedule: Q01DX001 (ip), vehicle: Klucel (hydroxypropylcellulose) (HPC) 108 % of control | endpoint: mean survival time, dose: 50.0 mg/kg/injection, schedule: Q01DX001 (ip), vehicle: Klucel (hydroxypropylcellulose) (HPC) 108 % of control | [5] 103 % of control

N#Cc1ccccc1NC1OCC(O)C(O)C1O (configuration not stated)
inactive: [10] 95 % of control | [12] 101 % of control | [13] 94 % of control

O=C(O)CCCCCCCC(Br)C(Br)CCCCCCCC(=O)O (configuration not stated)
inactive: [7] 95 % of control | [9] 91 % of control | [11] 91 % of control | [18] 95 % of control

N#CC1=C(C#N)C(=O)c2ccccc2C1=O
inactive: [6] 98 % of control | [8] 97 % of control | [10] 88 % of control
